SMILES strings stand for the structures.

For one series, the system named is A549 (lung) cells. Briefly: MTT antiproliferative assay, A549 cells. The settings on record: Homo sapiens, 36 h incubation, read-out: IC50 ± SE, A549. In kind it is cell-based. As for the experimental part: (§1) Compounds L^1−L^10 were evaluated against human cancer cell lines Hela, HepG2, MCF-7, A549, and the normal cell HUVEC with the antiproliferative activities in vitro by MTT assay, and results are summarized as IC50 values in Table 3.
(§2) Hela, HepG2, MCF-7, A549, and HUVEC cells were used in the antiproliferative activity assay. Cancer cells were seeded in 96-well plates with a density of 10^4 cells per well, after 12 hours of incubation at 5% CO2 and 37 °C, the culture media was removed and cells were incubated with L^1−L^10 dissolved in DMEM at different concentrations (each concentration repeated 3 times) for 36 h at 5% CO2 and 37 °C. Subsequently, removed the culture media and the new culture medium containing MTT (1 mg/mL) was added, followed by incubating for 4 h to allow the formation of formazan dye (Xia et al., [2015]; Zhao et al., [2018]). After removing the medium, 200 μL DMSO was added to each well to dissolve the formazan crystals. Absorbance was measured at 595 nm in a microplate photometer. Cell viability values were determined (at least three times) according to the following formulae: cell viability (%) = the absorbance of experimental group/the absorbance of blank control group ×100%.

The test system of a further series is HepG2 (liver) cells. Briefly: MTT antiproliferative assay, HepG2 cells. In kind it is cell-based. The settings on record: Homo sapiens, 36 h incubation, read-out: IC50 ± SE, HepG2. As for the experimental part: as §2
A further series has as its system Hela (cervix) cells. Briefly: MTT antiproliferative assay, Hela cells. The class given is cell-based. The settings on record: Homo sapiens, 36 h incubation, read-out: IC50 ± SE, Hela. On the procedure: as §1, §2
Background: Tetrazolium dyes change colour on reduction, which living cells bring about.

Series [1] deals with HUVEC (umbilical vein) cells. Briefly: MTT cytotoxicity assay, normal HUVEC cells. The class given is cell-based. The settings on record: Homo sapiens, 36 h, 36 h incubation, read-out: IC50 ± SE, HUVEC (toxicity, normal cell). On the procedure: as §1, §2
The next series in a line: pKb. In kind it is physicochemical.
A further series deals with MCF-7 (breast) cells. Briefly: MTT antiproliferative assay, MCF-7 cells. The class given is cell-based. The settings on record: Homo sapiens, MCF7, 36 h incubation, read-out: IC50 ± SE, MCF-7. As for the experimental part:
as §1, §2

For the molecule `COc1cccc2c1C(=O)c1c(O)c3c(c(O)c1C2=O)C[C@@](O)(C(=O)CO)C[C@@H]3O[C@H]1C[C@H](N)[C@H](O)[C@H](C)O1` [DOX, Doxorubicin, reference compound], the IC50 (in general, the midpoint of a concentration-inhibition curve) in the series with A549 (lung) cells was found to be 3.35 ± 0.69 µM; in the series with HepG2 (liver) cells, 1.2 ± 0.04 µM; in the series on Hela (cervix) cells, 3.55 ± 0.17 µM; in series [1], 4.4 ± 0.55 µM; with MCF-7 (breast) cells, 14 ± 1.03 µM. Besides, the pKb (in general, −log10 of the Kb, conventionally taken in molar units) in “pKb” stood at 5.80.
Turning to `CC(C)c1ccc2c(c1)CCC1C(C)(CN)CCCC21C` (stereo not shown) [L^0, dehydroabietylamine], the IC50 in the series on A549 (lung) cells was found to be 5.02 ± 0.19 µM; in the series on HepG2 (liver) cells, 2.56 ± 0.04 µM; in the series on Hela (cervix) cells it was 2.02 ± 0.02 µM; in series [1] it was 1.27 ± 0.03 µM; in the series with MCF-7 (breast) cells it was 19.4 ± 0.39 µM.
Taken in the same sequence, the figures for `CC(C)c1ccc2c(c1)CCC1C(C)(CN=Cc3cccs3)CCCC21C` (stereo not shown) [L^1, 2-thiophene-dehydroabietylamine-Schiff-base] were 2.11 ± 0.06 µM, 0.66 ± 0.02 µM, 9.02 ± 0.25 µM, 5.98 µM and 5.33 ± 0.16 µM.
With `Cc1ccsc1C=NCC1(C)CCCC2(C)c3ccc(C(C)C)cc3CCC12` (stereo not shown) [L^2, 3-methyl-2-thiophene-dehydroabietylamine-Schiff-base], the melting point (as a rule, the temperature, or range, at which the solid turns liquid) lay within 38.2 to 39.1 °C. The IC50 with A549 (lung) cells was more than 100 µM. The IC50 with HepG2 (liver) cells came to 28.78 ± 0.19 µM. Also, the IC50 in the series with Hela (cervix) cells was 59.52 ± 0.27 µM. Further, in series [1], the IC50 worked out at 34 ± 1.57 µM. The half-inhibitory concentration (IC50) with MCF-7 (breast) cells is 14.5 ± 2.48 µM.
Take `CC(C)c1ccc2c(c1)CCC1C(C)(CN=Cc3ccc(Br)s3)CCCC21C` (stereo not shown) [L^3, 5-bromine-2-thiophene-dehydroabietylamine-Schiff-base]: the IC50 with A549 (lung) cells was found to be 95.5 ± 2.48 µM; with HepG2 (liver) cells it was 1.63 ± 0.39 µM; in the series on Hela (cervix) cells it was 54.38 ± 0.38 µM; in series [1] it was 16.6 ± 1.08 µM; in the series with MCF-7 (breast) cells, 2.65 ± 0.07 µM.
Taken in the same sequence, the figures for `CC(C)c1ccc2c(c1)CCC1C(C)(CNC(=O)c3cccs3)CCCC21C` (stereo not shown) [L^4, 2–thiophene-acyl-dehydroabietylamine] were more than 100 µM, 46 ± 1.13 µM, 14.8 ± 0.22 µM, more than 100 µM and 8.21 ± 0.65 µM.
In the case of `Cc1ccc(C(=O)NCC2(C)CCCC3(C)c4ccc(C(C)C)cc4CCC23)s1` (stereo not shown) [L^5, 5-methyl-2-thiophene-acyl-dehydroabietylamine], the melting point lay in the range of 169.4 to 171.7 °C. The IC50 in the series with A549 (lung) cells is more than 100 µM. Besides, the IC50 with HepG2 (liver) cells amounted to 53.1 ± 1.95 µM. Also, the IC50 with Hela (cervix) cells is more than 100 µM. The IC50 in series [1] was more than 100 µM. For the same molecule, in the series with MCF-7 (breast) cells, the half-inhibitory concentration (IC50) was determined as 8.27 ± 0.21 µM.
In turn, `CC(C)c1ccc2c(c1)CCC1C(C)(CNC(=O)c3ccc(Br)s3)CCCC21C` (stereo not shown) [L^6, 5-bromine-2-thiophene-acyl-dehydroabietylamine] yielded a melting point of 170.7 to 173.2 °C. The concentration for half-maximal inhibition (IC50) with A549 (lung) cells came out at 94.4 ± 2.56 µM. Further, the IC50 in the series on HepG2 (liver) cells is 51.4 ± 2 µM. Also, in the series on Hela (cervix) cells, the IC50 was more than 100 µM. In addition, in series [1], the IC50 is 75.5 ± 12.4 µM. Also, the IC50 with MCF-7 (breast) cells was found to be 55.6 ± 2.56 µM.
In turn, `CC(C)c1ccc2c(c1)CCC1C(C)(CNC(=O)c3cnccn3)CCCC21C` (stereo not shown) [L^7, 2-pyrazine-acyl-dehydroabietylamine] registered a melting point of 159.8 to 162.3 °C. Moreover, the IC50 with A549 (lung) cells was 83.6 ± 15.7 µM. Also, in the series on HepG2 (liver) cells, the IC50 was determined as 24 ± 1.33 µM. The IC50 in the series on Hela (cervix) cells was 43.5 ± 1.34 µM. For the same molecule, the IC50 in series [1] was 66.8 ± 2.6 µM. In addition, the IC50 in the series with MCF-7 (breast) cells came out at 11.8 ± 0.54 µM.
Regarding `COc1cnc(C(=O)NCC2(C)CCCC3(C)c4ccc(C(C)C)cc4CCC23)cn1` (stereo not shown) [L^8, 5-methoxyl-2-pyrazine-acyl-dehydroabietylamine], the IC50 in the series on A549 (lung) cells turned out to be 36 ± 2.18 µM; in the series with HepG2 (liver) cells, 17.06 ± 0.07 µM; with Hela (cervix) cells, 20.2 ± 0.89 µM; in series [1], 95.1 ± 0.97 µM; in the series with MCF-7 (breast) cells, 8.81 ± 0.54 µM.
On to `Cc1cnc(C(=O)NCC2(C)CCCC3(C)c4ccc(C(C)C)cc4CCC23)cn1` (stereo not shown) [L^9, 5–methyl-2-pyrazine-acyl-dehydroabietylamine], for which the melting point was in the range of 130.7 to 133.4 °C. Moreover, the IC50 in the series with A549 (lung) cells is more than 100 µM. In addition, in the series with HepG2 (liver) cells, the IC50 came out at 44.9 ± 0.75 µM. Further, the half-maximal inhibitory concentration (IC50) with Hela (cervix) cells amounted to 52.5 ± 0.54 µM. In series [1], the IC50 came out at 18.9 ± 1.72 µM. Moreover, the IC50 in the series with MCF-7 (breast) cells is 6.66 ± 0.24 µM.
Regarding `CC(C)c1ccc2c(c1)CCC1C(C)(CNC(=O)c3cnc(Cl)cn3)CCCC21C` (stereo not shown) [L^10, 5-chloro-2-pyrazine-acyl-dehydroabietylamine], the melting point is 152.4 to 154.5 °C. The IC50 with A549 (lung) cells was 39.6 ± 1.74 µM. Moreover, the IC50 in the series on HepG2 (liver) cells was 56.1 ± 6.11 µM. Moreover, the IC50 in the series on Hela (cervix) cells is more than 100 µM. The IC50 in series [1] amounted to 29.4 ± 2.35 µM. In addition, the IC50 in the series on MCF-7 (breast) cells worked out at 88.8 ± 3.46 µM.
